Results reported in ChEMBL document CHEMBL5241075, “Advancement of chimeric hybrid drugs to cure malaria infection: An overview with special emphasis on endoperoxide pharmacophores” (Eur J Med Chem, 2021).
pIC50: −log10 of the molar value.

Assays:
[1] = system: Plasmodium falciparum; assay: Antimalarial activity against erythrocytic stage chloroquine sensitive Plasmodium falciparum W2 infected in mouse assessed as reduction in parasitemia at 43 mg/kg/day, po qd measured after 4 days by Giemsa staining based analysis relative to control; format: functional; parameters: scale not given: the % may be the effect or the level left; conditions: time 4 day
[2] = system: HeLa; assay: Antiproliferative activity against human HeLa cells assessed as cell growth inhibition; format: functional, cell-based; conditions: Homo sapiens, HeLa
[3] = system: Plasmodium falciparum; assay: Antimalarial activity against erythrocytic stage chloroquine sensitive Plasmodium falciparum 3D7 infected in mouse assessed as reduction in parasitemia at 15 mg/kg/day, po qd measured after 4 days by Giemsa staining based analysis relative to control; format: functional; parameters: scale not given: the % may be the effect or the level left; conditions: time 4 day
[4] = system: Plasmodium falciparum; assay: Antiplasmodial activity against Plasmodium falciparum W2; format: functional, organism-based
[5] = system: Plasmodium falciparum; assay: Antiplasmodial activity against chloroquine resistant Plasmodium falciparum by HRP2 ELISA analysis; format: functional, organism-based
[6] = system: Plasmodium falciparum; assay: Antiplasmodial activity against Plasmodium falciparum TM91C235; format: functional, organism-based
[7] = system: Hemozoin; assay: Inhibition of Beta-hematin in Plasmodium falciparum
[8] = system: Plasmodium yoelii nigeriensis; assay: Antiplasmodial activity against Plasmodium yoelii nigeriensis infected in sc dosed mouse assessed as reduction in parasitemia; format: functional
[9] = system: Plasmodium vinckei; assay: Antimalarial activity against chloroquine resistant Plasmodium vinckei infected in po dosed swiss mouse assessed as reduction in parasitemia; format: functional
[10] = system: Plasmodium vinckei petteri; assay: Antimalarial activity against chloroquine sensitive Plasmodium vinckei petteri infected in po dosed swiss mouse assessed as reduction in parasitemia; format: functional
[11] = system: Plasmodium falciparum; assay: Antimalarial activity against erythrocytic stage chloroquine sensitive Plasmodium falciparum 3D7 infected in mouse assessed as reduction in parasitemia at 43 mg/kg/day, po qd measured after 4 days by Giemsa staining based analysis relative to control; format: functional; parameters: scale not given: the % may be the effect or the level left; conditions: time 4 day
[12] = system: Plasmodium falciparum; assay: Antimalarial activity against erythrocytic stage chloroquine sensitive Plasmodium falciparum W2 infected in mouse assessed as reduction in parasitemia at 4 mg/kg/day, po qd measured after 4 days by Giemsa staining based analysis relative to control; format: functional; parameters: scale not given: the % may be the effect or the level left; conditions: time 4 day
[13] = system: Plasmodium falciparum; assay: Antimalarial activity against erythrocytic stage chloroquine sensitive Plasmodium falciparum 3D7 infected in mouse assessed as reduction in parasitemia at 4 mg/kg/day, po qd measured after 4 days by Giemsa staining based analysis relative to control; format: functional; parameters: scale not given: the % may be the effect or the level left; conditions: time 4 day
[14] = system: Plasmodium falciparum; assay: Antiplasmodial activity against Plasmodium falciparum NF54; format: functional, organism-based
[15] = system: Plasmodium falciparum; assay: Antiplasmodial activity against Plasmodium falciparum gametocytes assessed as inhibition of gametocyte activation by [3H]hypoxanthine incorporation assay; format: functional, organism-based
[16] = system: Plasmodium falciparum; assay: Antimalarial activity against erythrocytic stage chloroquine sensitive Plasmodium falciparum W2 infected in mouse assessed as reduction in parasitemia at 54 mg/kg/day, po qd measured after 4 days by Giemsa staining based analysis relative to control; format: functional; parameters: scale not given: the % may be the effect or the level left; conditions: time 4 day
[17] = Inhibition of Plasmodium falciparum falcipain-2
[18] = system: Plasmodium falciparum; assay: Antiplasmodial activity against Plasmodium falciparum 3D7; format: functional, organism-based

For CCN(CC)CCCC(C)Nc1ccnc2cc(Cl)ccc12 (stereo not drawn) [CHLOROQUINE], the Activity [1] was 15%, the pIC50 [2] was 5.07 and the Activity [3] was 100%. For the same molecule, the IC90 [4] was 18.6 nM, the IC90 [5] was 301 nM and the IC99 [5] was 0.531 µM. The IC90 [6] was 153 nM, the IC50 [7] was 1.91 equiv and the CD50 [8] was 7 mg/kg/day. For the same molecule, the CD90 [8] was 23 mg/kg/day, the ED50 ([8]; Plasmodium yoelii) was 5 mg/kg/day and the ED90 ([8]; Plasmodium yoelii) was 23 mg/kg/day. For the same molecule, the ED100 [9] was >100 mg/kg/day, the ED100 [10] was 16 mg/kg/day and the Activity [11] was 100%.
In the case of C[C@H]1[C@H](OC(=O)CCC(=O)O)O[C@@H]2O[C@@]3(C)CC[C@H]4[C@H](C)CC[C@@H]1[C@@]24OO3 [ARTESUNATE], the Activity [12] was 89%, the Activity [13] was 28% and the pIC50 [14] was > 8.28. It also gave a pIC50 [5] of 8.63, an IC90 [5] of 6.46 nM and an IC99 [5] of 0.0195 µM. For the same molecule, the pIC50 [15] was 3.52, the ED100 [9] was 100 mg/kg/day and the Activity [16] was 100%. For the same molecule, the ED100 [10] was 32 mg/kg/day.
Work on CC(C)CN(NC(=O)C1CCC2(CC1)OOC1(OO2)C2CC3CC(C2)CC1C3)c1nc(C#N)ncc1Cl (stereo not drawn) yielded a pIC50 [17] of 8.47, a pIC50 [4] of 8.01 and a pIC50 [18] of 8.01.
